# Patent US10086030B2, “Use of composition in preparing health care products or medicines for preventing and treating allergic diseases” (JIANGZHONG PHARMACEUTICAL CO., LTD., priority 2012, dated 2018)
# Values joined by “and” are separate entries in the source; they are usually repeats but may differ in a detail not shown here. Identical values can stand only once.
# Experiments:
# [1] = test system: delayed hypersensitivity in mouse auricle skin caused by 2,4-dinitrochlorobenzene; test: Delayed hypersensitivity in mouse auricle skin caused by 2,4-dinitrochlorobenzene; format: in vivo, Kunming mice; details: mice
# Experimental: A 5% 2,4-dinitrochlorobenzene solution in ethanol was applied onto the abdominal skin (shaved) of the mice for sensitization. […] 7 days after sensitization, a 1% 2,4-dinitrochlorobenzene solution was applied onto the right ear, and the mice were sacrificed after 24 hours, and both ears were cut off along the auricle baseline. Discs having a diameter of 8 mm were punctured out at the same position on both ears, precisely weighed on an electronic balance, and the weight difference between the left and right ears was taken as the value for delayed hypersensitivity.
# [2] = test system: passive anaphylaxis (PCA) in rats caused by ovalbumin; test: Passive anaphylaxis (PCA) in rats caused by ovalbumin: diameter of blue spots, mast cell degranulation, serum histamine; format: in vivo, SD rats; details: for Diameter of blue spots 1:4: 1:4 anti-ovalbumin serum; for Diameter of blue spots 1:8: 1:8 anti-ovalbumin serum
# Experimental: On day 15, the back of the rats were shaved, and was intradermally injected with a diluted antiserum at two spots on each side with 0.1 ml per spot. After 48 hours, a 1.0 ml mixed solution of 1% Evans Blue and 1% ovalbumin in physiological saline was injected into the tail vein of each rat. […] The rats were then sacrificed, and their back skin was inverted to measure the diameter of blue reaction spots to determine the difference between the dosing groups and the model group. A sample of the rat skin tissue was fixed with neutral formaldehyde, dehydrated with an alcohol gradient, embedded in paraffin, and examined for mast cell degranulation in the tissue[^3]. […] On day 15, the back of the rats were shaved, and was intradermally injected with a diluted antiserum at two spots on each side with 0.1 ml per spot. After 48 hours, a 1.0 ml mixed solution of 1% Evans Blue and 1% ovalbumin in physiological saline was injected into the tail vein of each rat. […] The rats were then sacrificed, and their back skin was inverted to measure the diameter of blue reaction spots to determine the difference between the dosing groups and the model group. A sample of the rat skin tissue was fixed with neutral formaldehyde, dehydrated with an alcohol gradient, embedded in paraffin, and examined for mast cell degranulation in the tissue^[3]. […] On day 15, the back of the rats were shaved, and was intradermally injected with a diluted antiserum at two spots on each side with 0.1 ml per spot. After 48 hours, a 1.0 ml mixed solution of 1% Evans Blue and 1% ovalbumin in physiological saline was injected into the tail vein of each rat. […] The rats were then sacrificed, and their back skin was inverted to measure the diameter of blue reaction spots to determine the difference between the dosing groups and the model group. A sample of the rat skin tissue was fixed with neutral formaldehyde, dehydrated with an alcohol gradient, embedded in paraffin, and examined for mast cell degranulation in the tissue^[3]. […] On day 15, the back of the rats were shaved, and was intradermally injected with a diluted antiserum at two spots on each side with 0.1 ml per spot. After 48 hours, a 1.0 ml mixed solution of 1% Evans Blue and 1% ovalbumin in physiological saline was injected into the tail vein of each rat. […] The rats were then sacrificed, and their back skin was inverted to measure the diameter of blue reaction spots to determine the difference between the dosing groups and the model group. A sample of the rat skin tissue was fixed with neutral formaldehyde, dehydrated with an alcohol gradient, embedded in paraffin, and examined for mast cell degranulation in the tissue^[3]. […] On day 15, the back of the rats were shaved, and was intradermally injected with a diluted antiserum at two spots on each side with 0.1 ml per spot. After 48 hours, a 1.0 ml mixed solution of 1% Evans Blue and 1% ovalbumin in physiological saline was injected into the tail vein of each rat. […] The rats were then sacrificed, and their back skin was inverted to measure the diameter of blue reaction spots to determine the difference between the dosing groups and the model group. A sample of the rat skin tissue was fixed with neutral formaldehyde, dehydrated with an alcohol gradient, embedded in paraffin, and examined for mast cell degranulation in the tissue^[3]. […] On day 15, the back of the rats were shaved, and was intradermally injected with a diluted antiserum at two spots on each side with 0.1 ml per spot. After 48 hours, a 1.0 ml mixed solution of 1% Evans Blue and 1% ovalbumin in physiological saline was injected into the tail vein of each rat. […] The rats were then sacrificed, and their back skin was inverted to measure the diameter of blue reaction spots to determine the difference between the dosing groups and the model group.
# [3] = test system: local itching in mice caused by low-molecular-weight dextran; test: Local itching in mice caused by low-molecular-weight dextran; format: in vivo, Kunming mice
# Experimental: Intragastric administration was carried out to the mice once per day for 10 consecutive days. 30 min after the final administration, a 0.0125% low-molecular-weight dextran solution was injected at 0.1 g/10 g into the tail vein. The number of itching events (itching events were indicated by scratching on the head with front paws, scratching on the body with hind paws, and biting on various parts over the body) occurred within 30 min after injection with the low-molecular-weight dextran solution into tail veins of the mice in each group was observed and recorded. […] The number of itching events (itching events were indicated by scratching on the head with front paws, scratching on the body with hind paws, and biting on various parts over the body) occurred within 30 min after injection with the low-molecular-weight dextran solution into tail veins of the mice in each group was observed and recorded. […] The number of itching events (itching events were indicated by scratching on the head with front paws, scratching on the body with hind paws, and biting on various parts over the body) occurred within 30 min after injection with the low-molecular-weight dextran solution into tail veins of the mice in each group was observed and recorded. […] The number of itching events (itching events were indicated by scratching on the head with front paws, scratching on the body with hind paws, and biting on various parts over the body) occurred within 30 min after injection with the low-molecular-weight dextran solution into tail veins of the mice in each group was observed and recorded.
# [4] = prednisone 5.0 mg, Composition 6 study
# [5] = prednisone 5.0 mg, Composition 7 study
# [6] = prednisone 5.0 mg, Composition 8 study
structure (smiles),measurement,setting,value
C[C@]12C=CC(=O)C=C1CC[C@@H]1[C@@H]2C(=O)C[C@@]2(C)[C@H]1CC[C@]2(O)C(=O)CO [prednisone],swelling degree of mouse auricle discs,[1]; positive control prednisone 5.0 mg (5 mg/kg) i.g. once daily 10 days,5.07 ± 0.59 mg and 4.22 ± 0.96 mg and 4.80 ± 0.73 mg
same,swelling degree of mouse auricle discs,[1]; [4],4.62 ± 0.79 mg
same,swelling degree of mouse auricle discs,[1]; [5],4.84 ± 0.70 mg
same,swelling degree of mouse auricle discs,[1]; [6],4.60 ± 0.82 mg
same,Diameter of blue spots 1:4,[2]; [4],13.22 ± 1.90 mm
same,Diameter of blue spots 1:4,[2]; [5],12.48 ± 2.16 mm
same,Diameter of blue spots 1:4,[2]; [6],12.82 ± 2.62 mm
same,Diameter of blue spots 1:8,[2]; [4],8.65 ± 1.52 mm
same,Diameter of blue spots 1:8,[2]; [5],8.32 ± 1.63 mm
same,Diameter of blue spots 1:8,[2]; [6],8.54 ± 1.82 mm
same,Diameter of blue spots (mm) 1:4,"[2]; antiserum 1:4, positive control prednisone 5.0 mg (5 mg/kg) i.g. once daily 14 days",12.79 ± 1.88 mm and 11.94 ± 1.90 mm and 11.35 ± 1.74 mm
same,Diameter of blue spots (mm) 1:8,"[2]; antiserum 1:8, positive control prednisone 5.0 mg (5 mg/kg) i.g. once daily 14 days",6.72 ± 1.31 mm
same,Degranulation (mast cell),[2]; [4],19.80 ± 10.57
same,Histamine fluorescence (serum histamine content),[2]; [4],2.07 ± 0.76 mg·L
same,Degranulation (mast cell),[2]; [5],17.54 ± 11.23
same,Histamine fluorescence (serum histamine content),[2]; [5],2.11 ± 0.70 mg·L
same,Degranulation (mast cell),[2]; [6],17.95 ± 11.82
same,Histamine fluorescence (serum histamine content),[2]; [6],2.25 ± 0.76 mg·L
same,Degranulation (mast cell),"[2]; skin tissue, positive control prednisone 5.0 mg (5 mg/kg) i.g. once daily 14 days",22.54 ± 11.25 and 19.46 ± 8.72 and 21.33 ± 10.48
same,Number of itching events (30 min),[3]; [4],15.43 ± 4.56
same,Number of itching events (30 min),[3]; [5],15.57 ± 5.33
same,Number of itching events (30 min),[3]; [6],14.88 ± 5.08
same,Number of itching events (30 min),"[3]; within 30 min after dextran, positive control prednisone 5.0 mg i.g. once daily 10 days",18.30 ± 4.62 and 14.25 ± 6.72 and 17.20 ± 4.08
